Data set [1] concerns KJL-2 cells. As to the kind of experiment: TNFα-induced firefly luciferase (FL) / Renilla luciferase (RL) reporter gene assay (DUAL-GLO) in vinblastin-treated, frozen and thawed KJL-2 cells. The format is cell-based, human. To be noted: for FL/RL ratio: scavengers/chelators of reactive oxygen species, cells treated 10 minutes. The procedure:
The X-axis is TNFα, ng/ml.
KJL-2 cells were used in all experiments (carried out to date). […] In order to reduce the formation of ice crystals and subsequent cell lysis, all experimental groups were frozen using the alcohol-free Biocison controlled freezing system that cools cells at approximately 1.0° C./minute.

Data set [2] has as its system KJL-2 cells. As to the kind of experiment: Staurosporine-induced apoptosis: FL and RL activity in KJL-2 cells. The format is cell-based, human. To be noted: 10 micromolar staurosporine, over 24 hours. Here is the method:
Briefly, untreated cells or cells treated with vinblastin as described in WO 2004/039990; US 2004/0235157 and U.S. Pat. No. 7,470,536 were treated for 10 minutes with substances that inhibit the formation of reactive oxygen species and/or scavengers of reactive oxygen species either alone or concomitantly with vinblastin treatment. The cells were then frozen using the cryopreservative medium described in WO 2004/039990; US 2004/0235157 and U.S. Pat. No. 7,470,536 with or without substances that inhibit the formation of reactive oxygen species and/or scavengers of reactive oxygen species. KJL-2 cells were used in all experiments (carried out to date). All groups were treated with vinblastin using the same procedure as described in WO 2004/039990; US 2004/0235157 and U.S. Pat. No. 7,470,536. In order to reduce the formation of ice crystals and subsequent cell lysis, all experimental groups were frozen using the alcohol-free Biocison controlled freezing system that cools cells at approximately 1.0° C./minute. All assays were performed using DUAL-GLO (Promega, Catalogue No 2920) that allows Firefly luciferase (FL) and Renilla luciferase (RL) activity to be determined sequentially in the same well of a microtiter plate.

Setting [3] is: NAC both during treatment with vinblastin and in the cryopreservative medium.
The mark [4] stands for this setting: substances that reduce H2O2 (COX inhibitors).
Where [5] appears, read: pre-treatment of cells with protease inhibitor and addition to the freezing medium.
[6] abbreviates: pre-treatment of cells with proteasome inhibitor.

The record followed here is patent US10271539B2, “Assay-ready frozen cell and method for minimizing variability in the performance thereof” (LE CENTRE NATIONALE DE LA RECHERCHE SCIENTIFIQUE (CNRS), priority 2013, dated 2019).

“Also recorded” adds a separate entry of the source. Where a SMILES comes first, the peptide text is derived from it. [ ]: non-standard residue; d: D form. The star is where a group is joined. Sta = CC(C)C[C@H](N)[C@@H](O)CC(=O)O; Isovaleryl = CC(C)CC(=O)*; Cbz = O=C(OCc1ccccc1)*

In the case of MNTMPyP, the FL/RL ratio entry in the data set with KJL-2 cells [1] is given as “without effect”. As to `CC(=O)N[C@@H](CSSC[C@H](N)C(=O)O)C(=O)O` [N-acetylcystine], the “vial-to-vial variation in normalized RLU and normalized fold induction” value in the data set on KJL-2 cells [1] (5 mM NAC, FIGS. 6A and 6B) is on record as “superior to GSH treatment in reducing vial-to-vial variation”. In the data set on KJL-2 cells [1] (setting [3]), the “lot-to-lot variation in the performance of assay-ready frozen cells” value was “markedly reducing” and the “vial-to-vial variation in the performance of assay-ready frozen cells” value is recorded as “markedly reducing”. As for `Oc1ncnc2[nH]ncc12` [allopurinol], the “FL values (RLU)” value in the data set with KJL-2 cells [1] (100 μM allopurinol in cryopreservative, frozen one day or 5 days, vs control, FIGS. 1A and 1B) is listed as “significantly increases FL values”. Besides, the “intra-vial (vial to vial) variation in normalized RLU and normalized fold induction” value with KJL-2 cells [1] (100 μM allopurinol, relative to cells treated with vinblastin alone, FIGS. 3A-4B) is recorded as “reduced intra-vial variation”. In addition, in the data set with KJL-2 cells [1] (100 μM allopurinol, TNFα of 10 ng/ml and higher, FIGS. 4A and 4B), the “form of the TNFα dose response curve” value is “some alteration of the form of the TNFα dose response curve”.

As to `CN[C@@H]1C[C@H]2O[C@@](C)([C@@H]1OC)n1c3ccccc3c3c4c(c5c6ccccc6n2c5c31)C(=O)NC4` [staurosporine], in the data set on KJL-2 cells [2], the FL activity result is listed as “inhibits FL activity progressively” and the RL activity result is “remains fairly constant”. Take `CC(=O)Oc1ccccc1C(=O)O` [Acetylsalicylic acid, acetylsalicylic acid]: the FL activity entry with KJL-2 cells [1] (setting [4]) is “increased FL activity marginally”. Turning to `NCCNCCNCCNCCN` [tetra ethylenepentamine], the FL/RL ratio result with KJL-2 cells [1] is given as “without effect”. On the same count and under the same terms, the same measure for `OC[C@@H](O)[C@@H](O)[C@H](O)[C@H](O)CO` [Mannitol]: “without effect”. As to `O=S(=O)(F)Cc1ccccc1` [PMSF], the FL activity result in the data set with KJL-2 cells [1] (setting [5]) was “did not significantly increase FL activity”. As for `CC(=O)N[C@@H](CSC(=O)[C@]1([C@@H](O)C(C)C)NC(=O)[C@H](C)[C@@H]1O)C(=O)O` [lactacystin], in the data set with KJL-2 cells [1] (setting [6]), the FL activity entry is “did not increase FL activity significantly”.

In the case of `CC(C)CC(=O)N[C@H](C(=O)N[C@H](C(=O)N[C@@H](CC(C)C)[C@@H](O)CC(=O)N[C@@H](C)C(=O)N[C@@H](CC(C)C)[C@@H](O)CC(=O)O)C(C)C)C(C)C` [Pepstatin A] (Isovaleryl-VV[Sta]A[Sta]-OH), the FL activity entry in the data set with KJL-2 cells [1] (setting [5]) is given as “did not significantly increase FL activity”. Turning to `O=S(=O)(O)c1cc(O)c(O)c(S(=O)(=O)O)c1` [Tiron], the FL/RL ratio result in the data set on KJL-2 cells [1] was “without effect”. Consider `CS(=O)(=O)c1ccc(C2=C(c3ccccc3)C(=O)OC2)cc1` [VIOXX, rofecoxib], for which, in the data set with KJL-2 cells [1] (setting [4]), the FL activity result is recorded as “increased FL activity marginally”.

`Cl.N` [ammonium chloride]: in the data set on KJL-2 cells [1] (setting [5]), the FL activity result was “did not significantly increase FL activity”. For the compound `CC(C)C[C@@H](C=O)NC(=O)[C@H](CC(C)C)NC(=O)[C@H](CC(C)C)NC(=O)OCc1ccccc1` [MG-132] (Cbz-Leu-Leu-Leu-aldehyde), in the data set with KJL-2 cells [1] (setting [6]), the FL activity result is “did not increase FL activity significantly; also recorded: reduced FL activity”. As to `CC1(C)CC(O)CC(C)(C)N1[O]` [TEMPOL], the FL/RL ratio result with KJL-2 cells [1] is recorded as “without effect”.

Take `N[C@@H](CCC(=O)N[C@@H](CS)C(=O)NCC(=O)O)C(=O)O` [GSH, glutathione SH]: the “vial-to-vial variation in normalized RLU and normalized fold induction” value in the data set with KJL-2 cells [1] (1 mM GSH, FIGS. 5A and 5B) is listed as “appeared to be effective in reducing vial-to-vial variation”; in the data set with KJL-2 cells [1] (1 mM GSH, FIGS. 5A and 5B, listed as glutathione SH), “higher degree of variability in FL readings”. Consider `CC[C@H](C)[C@H](NC(=O)[C@H]([C@@H](C)CC)N(C)C(C)=O)C(=O)N[C@H](C(=O)N[C@@H](CC(C)C)C(=O)[C@@]1(C)CO1)[C@@H](C)O` [epoxomicin], for which the FL activity entry in the data set on KJL-2 cells [1] (setting [6]) is on record as “did not increase FL activity significantly”.
